From PMC6364417, “Kinase inhibitor library screening identifies synergistic drug combinations effective in sensitive and resistant melanoma cells” (Journal of Experimental & Clinical Cancer Research : CR, 2019)

Assays:
Assay in all cases: Kinase inhibitor library screening, PrestoBlue cell viability, 1 or 10 μM, 72 h
[1] = tested on: A375-XP cells (Vemurafenib-resistant); conditions: A375 XP, 72 h; for cell viability, A375 XP, 1μΜ / cell viability, A375 XP, 10μΜ: in %
[2] = tested on: 501Mel-GP cells (Dabrafenib-resistant); conditions: 501Mel GP, 72 h; for cell viability, 501Mel GP, 1μΜ / cell viability, 501Mel GP, 10μΜ: in %
IGR37 cells (parental) = conditions: IGR37 Parental, 72 h; for cell viability, IGR37 Parental, 1μΜ / cell viability, IGR37 Parental, 10μΜ: in %
501Mel cells (parental) = conditions: 501Mel Parental, 72 h; for cell viability, 501Mel Parental, 1μΜ / cell viability, 501Mel Parental, 10μΜ: in %
Outline: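 PrestoBlue viability readout after 72 h exposure to each inhibitor at 1 or 10 μM, reported relative to untreated cells as % viability. Lines tested: sensitive parental plus derivatives resistant to Vemurafenib (XP) or Dabrafenib (GP), each run at least in duplicate.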

[3] = tested on: IGR37-GP cells (Dabrafenib-resistant); conditions: IGR37 GP, 72 h; for cell viability, IGR37 GP, 1μΜ: in %
[4] = tested on: IGR37-XP cells (Vemurafenib-resistant); conditions: IGR37 XP, 72 h; for cell viability, IGR37 XP, 1μΜ: in %
[5] = tested on: A375-GP cells (Dabrafenib-resistant); conditions: A375 GP, 72 h; for cell viability, A375 GP, 1μΜ / cell viability, A375 GP, 10μΜ: in %
[6] = tested on: 501Mel-XP cells (Vemurafenib-resistant); conditions: 501Mel XP, 72 h; for cell viability, 501Mel XP, 1μΜ / cell viability, 501Mel XP, 10μΜ: in %
A375 cells (parental) = conditions: A375 Parental, 72 h; for cell viability, A375 Parental, 1μΜ / cell viability, A375 Parental, 10μΜ: in %

Row | SMILES | cell viability (kinase inhibitor library screening) ([1]; 1μΜ) [%] | cell viability (kinase inhibitor library screening) ([1]; 10μΜ) [%] | cell viability (kinase inhibitor library screening) ([2]; 1μΜ) [%] | cell viability (kinase inhibitor library screening) ([2]; 10μΜ) [%] | cell viability (kinase inhibitor library screening) (IGR37 cells (parental); 1μΜ) [%] | cell viability (kinase inhibitor library screening) (IGR37 cells (parental); 10μΜ) [%] | cell viability (kinase inhibitor library screening) (501Mel cells (parental); 1μΜ) [%] | cell viability (kinase inhibitor library screening) (501Mel cells (parental); 10μΜ) [%] | cell viability (kinase inhibitor library screening) ([3]; 1μΜ) [%] | cell viability (kinase inhibitor library screening) ([3]; 10μΜ) [%] | cell viability (kinase inhibitor library screening) ([4]; 1μΜ) [%] | cell viability (kinase inhibitor library screening) ([4]; 10μΜ) [%] | cell viability (kinase inhibitor library screening) ([5]; 1μΜ) [%] | cell viability (kinase inhibitor library screening) ([5]; 10μΜ) [%] | cell viability (kinase inhibitor library screening) ([6]; 1μΜ) [%] | cell viability (kinase inhibitor library screening) ([6]; 10μΜ) [%] | cell viability (kinase inhibitor library screening) (A375 cells (parental); 10μΜ) [%] | cell viability (kinase inhibitor library screening) (A375 cells (parental); 1μΜ) [%] | cell viability, A375 XP, 1μΜ ([1]; 1μΜ) | cell viability, A375 XP, 10μΜ ([1]; 10μΜ) | other results
1 | Cn1cc(-c2ccc3ncc(Cc4ccc5ncccc5c4)n3n2)cn1 [NVP-BVU972] | 109.6 | 105.5 | 89.9 | 69.4 | 104.5 | 96.9 | 107.5 | 89.2 | 108.8 | 87.7 | 110.4 | 86.2 | 106.0 | 100.5 | 74.0 | 62.7 | 100.0 | 108.4 |  |  | 
2 | CNC(=O)c1ccccc1Nc1nc(Nc2ccc(N3CCOCC3)cc2OC)ncc1Cl [NVP-TAE226] |  |  |  |  |  |  |  |  |  |  |  |  |  |  |  |  |  |  | 52.4 | 21.6 | cell viability, 501Mel GP, 1μΜ ([2]; 1μΜ): 72.0; cell viability, 501Mel GP, 10μΜ ([2]; 10μΜ): 34.3; cell viability, IGR37 Parental, 1μΜ (IGR37 cells (parental); 1μΜ): 82.8; cell viability, IGR37 Parental, 10μΜ (IGR37 cells (parental); 10μΜ): 36.2; cell viability, 501Mel Parental, 1μΜ (501Mel cells (parental); 1μΜ): 69.2; cell viability, 501Mel Parental, 10μΜ (501Mel cells (parental); 10μΜ): 38.3; cell viability, IGR37 GP, 10μΜ ([3]; 10μΜ): 3.7%; cell viability, IGR37 GP, 1μΜ ([3]; 1μΜ): 59.0; cell viability, IGR37 XP, 10μΜ ([4]; 10μΜ): 1.5%; cell viability, IGR37 XP, 1μΜ ([4]; 1μΜ): 34.8; cell viability, A375 GP, 1μΜ ([5]; 1μΜ): 41.6; cell viability, A375 GP, 10μΜ ([5]; 10μΜ): 16.3; cell viability, 501Mel XP, 1μΜ ([6]; 1μΜ): 67.5; cell viability, 501Mel XP, 10μΜ ([6]; 10μΜ): 20.7; cell viability, A375 Parental, 1μΜ (A375 cells (parental); 1μΜ): 51.1; cell viability, A375 Parental, 10μΜ (A375 cells (parental); 10μΜ): 12.7
3 | CCOc1cc2ncc(C#N)c(Nc3ccc(OCc4ccccn4)c(Cl)c3)c2cc1NC(=O)/C=C/CN(C)C [Neratinib (HKI-272)] |  |  |  |  |  |  |  |  |  |  |  |  |  |  |  |  |  |  | 89.5 | 10.7 | cell viability, 501Mel GP, 1μΜ ([2]; 1μΜ): 103.4; cell viability, 501Mel GP, 10μΜ ([2]; 10μΜ): 64.1; cell viability, IGR37 Parental, 1μΜ (IGR37 cells (parental); 1μΜ): 96.7; cell viability, IGR37 Parental, 10μΜ (IGR37 cells (parental); 10μΜ): 66.7; cell viability, 501Mel Parental, 1μΜ (501Mel cells (parental); 1μΜ): 96.7; cell viability, 501Mel Parental, 10μΜ (501Mel cells (parental); 10μΜ): 54.8; cell viability, IGR37 GP, 10μΜ ([3]; 10μΜ): 21.6%; cell viability, IGR37 GP, 1μΜ ([3]; 1μΜ): 81.2; cell viability, IGR37 XP, 10μΜ ([4]; 10μΜ): 9.6%; cell viability, IGR37 XP, 1μΜ ([4]; 1μΜ): 75.0; cell viability, A375 GP, 1μΜ ([5]; 1μΜ): 93.4; cell viability, A375 GP, 10μΜ ([5]; 10μΜ): 4.2; cell viability, 501Mel XP, 1μΜ ([6]; 1μΜ): 85.2; cell viability, 501Mel XP, 10μΜ ([6]; 10μΜ): 0.0171; cell viability, A375 Parental, 1μΜ (A375 cells (parental); 1μΜ): 97.5; cell viability, A375 Parental, 10μΜ (A375 cells (parental); 10μΜ): 29.0
4 | Cc1cn(-c2cc(NC(=O)c3ccc(C)c(Nc4nccc(-c5cccnc5)n4)c3)cc(C(F)(F)F)c2)cn1 [Nilotinib (AMN-107)] | 87.0 | 57.9 | 99.9 | 74.5 | 95.3 | 73.7 | 89.8 | 71.1 | 98.8 | 35.4 | 100.2 | 1.4 | 96.3 | 48.3 | 84.0 | 54.3 | 66.2 | 102.9 |  |  | 
